According to patent publication EP4620466A1, “TRIMETHOXYSTYRYL DERIVATIVES FOR USE IN THE TREATMENT OF PACLITAXEL-RESISTANT CANCER” (Instituto de Investigación Biomédica de Salamanca De la …, priority 2024, dated 2025):
pIC50: −log10 of the molar value.

These molecules were tested on HeLa cells (assay: Cell proliferation assay (XTT), cytostatic activity). Details: 72-h treatment, XTT cell proliferation kit.
Format: cell-based
Method: […] cells were seeded in 96-well plates and incubated in the presence or the absence of the indicated compounds at concentrations ranging from 10^-5 to 10^-12 M. The cytostatic activity was measured after 72-h treatments using the XTT (sodium 3'-[1-(phenylaminocarbonyl)-3,4-tetrazolium]-bis(4- methoxy-6-nitro)-benzenesulfonic acid hydrate) cell proliferation kit (Roche Molecular Biochemicals; Mannheim, Germany) following the manufacturer's specifications. Each condition was seeded in triplicate, and experiments were repeated three times to calculate IC values by non-linear regression fitting the data.

Row | Molecule | pIC50
1 | 1-Methyl-5-(2,3,4- trimethoxybenzoyl)-1H-indole-3-carbonitrile [Compound 26] | < 6.00
2 | 1-Methyl-5-[1-(2,3,4-trimethoxyphenyl)vinyl]-1H-indol-3-ylmethanol [Compound 18] | 6.52
3 | 5-(N-(3,5-dimethoxyphenyl)sulfamoyl)-1-methyl-1H-indole-3-carboxamide [Compound 54] | 5.75
4 | COc1cc(C(=NO)c2ccc3c(ccn3C)c2)cc(OC)c1OC (mixture of isomers) [Compound 7, (E/Z)-(I-Methyl-1H-indol-5-yl)(3,4,5-trimethoxyphenyl)methanone oxime] | 6.44

Same assay, conditions: Homo sapiens, 72-h treatment, XTT cell proliferation kit

Row | pIC50 | Molecule
5 | 6.52 | CSc1cc(C(=NO)c2ccc3c(ccn3C)c2)cc(Cl)n1 (mixture of isomers) [Compound 66, (E/Z)-(2-chloro-6-(methylsulfanyl)pyridin-4-yl) (1-methyl-1H-indol-5-yl)methanone oxime]
6 | 7.22 | CSc1cc(C(=NO)c2ccc3c(c2)c(C#N)cn3C)cc(Cl)n1 (mixture of isomers) [Compound 69, (E/Z)-5-((2-chloro-6-(methylsulfanyl)pyridin-4-yl)(hydroxyimino)methyl)-1-methyl-1H-indole-3-carbonitrile]
7 | 6.30 | CSc1cc(C(=NO)c2ccc3c(ccn3C)c2)cc(SC)n1 (mixture of isomers) [Compound 75, (E/Z)-(2,6-bis(methylsulfanyl)pyridin-4-yl) (1-methyl-1H-indol-5-yl)methanone oximes]
8 | < 6.00 | COc1cc(C(O)c2ccc3c(ccn3C)c2)cc(OC)c1OC (centres unmarked) [Compound 1, (1-methyl-1H-indol-5-yl)(3,4,5-trimethoxyphenyl)methanol]
9 | < 6.00 | COc1ccc(C(O)c2ccc3c(ccn3C)c2)c(OC)c1OC (centres unmarked) [Compound 2, (1-methyl-1H-indol-5-yl)(2,3,4-trimethoxyphenyl)methanol]
10 | 7.60 | COc1cc(C(=O)c2ccc3c(ccn3C)c2)cc(OC)c1OC [Compound 3, (1-methyl-1H-indol-5-yl)(3,4,5-trimethoxyphenyl)methanone]
11 | 7.77 | COc1ccc(C(=O)c2ccc3c(ccn3C)c2)c(OC)c1OC [Compound 4, (1-methyl-1H-indol-5-yl)(2,3,4-trimethoxyphenyl)methanone]
12 | 7.49 | C=C(c1ccc2c(ccn2C)c1)c1ccc(OC)c(OC)c1OC [Compound 6, 1-methyl-5-(1-(2,3,4-trimethoxyphenyl)vinyl)-1H-indole]
13 | 7.12 | COc1ccc(/C(=N\O)c2ccc3c(ccn3C)c2)c(OC)c1OC [Compound 8, Z-(1-methyl-1H-indol-5-yl)(2,3,4-trimethoxyphenyl)methanone oxime]
14 | 6.49 | COc1cc(C(=O)c2ccc3c(c2)c(C=O)cn3C)cc(OC)c1OC [Compound 9, 1-Methyl-5-[1-(3,4,5-trimethoxybenzoyl)]-1H-indole-3-carbaldehyde]
15 | 6.11 | COc1ccc(C(=O)c2ccc3c(c2)c(C=O)cn3C)c(OC)c1OC [Compound 10, 1-Methyl-5-(2,3,4-trimethoxybenzoyl)-1H-indole-3-carbaldehyde]
16 | 7.70 | C=C(c1cc(OC)c(OC)c(OC)c1)c1ccc2c(c1)c(C=O)cn2C [Compound 11, 1-Methyl-5-[1-(3,4,5-trimethoxyphenyl)vinyl]-1H-indole-3-carbaldehyde]
17 | 7.49 | C=C(c1ccc2c(c1)c(C=O)cn2C)c1ccc(OC)c(OC)c1OC [Compound 12, 1-Methyl-5-[1-(2,3,4-trimethoxyphenyl)vinyl]-1H-indole-3-2carbaldehyde]
18 | 9.19 | COc1cc(C(C)c2ccc3c(ccn3C)c2)cc(OC)c1OC (centres unmarked) [Compound 13, 1-Methyl-5-(1-(3,4,5-trimethoxyphenyl)ethyl)-1H-indole]
19 | 6.51 | COc1ccc(C(C)c2ccc3c(ccn3C)c2)c(OC)c1OC (centres unmarked) [Compound 14, 1-Methyl-5-(1-(2,3,4-trimethoxyphenyl)ethyl)-1H-indole]

Row | Molecule | pIC50
20 | C=C(c1cc(OC)c(OC)c(OC)c1)c1ccc2c(ccn2C)c1 [Compound 5, 1-methyl-5-(1-(3,4,5-trimethoxyphenyl)vinyl)-1H-indole] | 8.57
